{"source": "patent US4175544A", "about": "“Iodo-aryl carbonates for use in methods in radiography” (Lafayette Pharmacal Inc., priority 1978, dated 1979)", "key": {"[1]": {"system": "albino mice", "assay": "Initial toxicity screen: Approximate Lethal Dose by intraperitoneal injection (Deichmann and LeBlanc)", "assay_type": "in vivo", "conditions": "20% w/v in Sesame oil, for r also footnote (b): largest dose administered"}, "[2]": {"system": "albino mice", "assay": "Initial toxicity screen: Approximate Lethal Dose by intraperitoneal injection (Deichmann and LeBlanc)", "assay_type": "in vivo", "conditions": "for Approximate Lethal Dose (ALD): intraperitoneal, albino mice, neat liquid or suspension, footnote (b): largest dose administered (e, f, i, p, q)", "protocol": "As an initial toxicity screen for the compounds shown hereinabove, the neat liquid or suspension of the material was injected into the peritoneal cavity of albino mice and the Approximate Lethal Dose (ALD) determined using the method of Deichmann and LeBlanc (W. B. Deichmann and T. J. LeBlanc, J. Ind. Hyg., 25, 415 (1943)) the results of which are presented in Table II, as set forth hereinafter.\nApproximate Interperitoneal Toxicity in Mice\nApproximate Lethal Dose Ml/Kg"}, "[3]": {"system": "brain and spinal cord", "assay": "Suboccipital study of laboratory animals (neurotoxicity, brain and spinal cord histopathology)", "assay_type": "in vivo, laboratory rats", "conditions": "rat; for Overall / histopathological response: 0.1 ml suboccipital injection, 1 to 14 weeks; for Difficulty with righting responses / Recovery from the injection procedure: suboccipital injection; for Recovery from the injection procedure: as a group; for Lipid puddle formation: compared with air and Pantopaque", "protocol": "Six iodinated phenyl carbonate compounds prepared as described above, as well as air and Pantopaque, a known prior art radiographic compound, were injected suboccipitally into separate groups of 30 laboratory rats. The six iodinated compounds under examination were p-iodobenzyl-n-hexyl carbonate, p-iodobenzyl-n-octyl carbonate, p-iodobenzyl-2-octyl carbonate, 2-ethylhexyl-p-iodobenzyl carbonate, n-hexyl-3-(p-iodophenyl)propyl carbonate and n-hexyl-2-(p-iodobenzyl)butyl carbonate. Six rats from each injected group were then sacrificed at periodic intervals and the brain and spinal cord removed for histopathological evaluation. By comparing the results of air and Pantopaque with the results using the iodinated compounds, an evaluation of their relative neurotoxicity was obtained.\nThe groups of rats were first subjected to standard quarantine procedure at the Lafayette Pharmacol, Inc. facilities for at least two weeks prior to dosing. About 18 hours prior to dosing, food was withdrawn but water was allowed ad lib. During injection, each animal was anesthetized in an ether chamber and the back of the neck closely clipped. After placing the animal on a board with the head declined at 45°, a puncture was made just at the base of the atlas and 0.1 ml. of the selected test substance was injected. Radiographs were then taken immediately after dosing to confirm the intrathecal location of the injected bolus, and the animals were returned to their cages for observation.\nOne group of six animals for each tested substance was then sacrificed at the following elapsed times post injection: 1 week; 2 weeks; 4 weeks; 8 weeks and 14 weeks. At sacrifice, the animal were perfused with saline and formalin. Each animal was again radiographed and the brain and spinal cord then removed and stored for histopathological study."}, "[4]": {"system": "lymph nodes (popliteal and iliac)", "conditions": "dog, in vivo", "description": "Four iodinated organic carbonates prepared as described hereinabove were evaluated for use as lymphographic agents in laboratory dogs.\nSix adult mongrel dogs, preconditioned for at least two weeks at the Lafayette Pharmacal, Inc. facilities, were used for the study. The dogs were removed from food the evening prior to dosing. Each animal was first anesthetized with Rompun and sodium pentobarbital and intubated to assist in breathing. A standard lymphogram was then performed on one rear leg only of each animal using known laboratory procedures. Specifically, a blue dye was first injected between the toes of the right hind limb to locate the lymph ducts. A single duct was then disected out and cannulated. One of the six compounds was then selected and a syringe pump used to inject the test compound into the duct at a constant rate. In this regard, the dogs were injected with an effective amount of one (1) cc of test substance per 20 lbs. of body weight. The iodinated phenyl compounds were brought to about body temperature prior to the injecting and then were injected while at about the body temperature.\nRadiographs were then taken of each animal after confirming the location of the injected bolus by fluoroscopy means. The animals were given atropine sulfate and observations made while they were allowed to recover from the anesthetic unassisted.\nThe animals were then returned to their cages and radiographs were taken at the end of 24 hours, 3 days and 1, 2, 3, 4 and 6 weeks to determine the radiographic clearance rate of each tested compound. Daily urine samples were also collected and subjected to fluorescent exitation analysis to determine the urinary clearance rate for each compound. Six weeks after the initial lymphogram, the animals were sacrificed and the popliteal and iliac nodes on both sides removed. The nodes from the dosed side and undosed side of each animal were then compared histopathologically."}, "[5]": {"system": "lung", "conditions": "dog, in vivo", "description": "(§1) Food was withdrawn from each animal 12 hours prior to dosing with water given ad lib. The animals were then first anesthetized with sodium pentobarbital and maintained on halothane. Each animal was then intubated with a tracheal tube and scouting X-ray films were taken to confirm its position. Next, a stainless steel guide wire was passed through a polypropylene tube, i.e., insuflation tube, and this combination was passed into the animal's lung. The position of this guide wire was then confirmed by fluoroscopy and the guide wire then removed, thus leaving the insulfation tube in place.\n(§2) In this regard, the amount of selected iodinated phenyl carbonate compound varied for each animal according to weight, with 6 cc being given to the heaviest test dog. Oxygen at 20 psi was then used to insuflate a caudal lobe of one lung of each animal while monitoring with fluoroscopy. Lateral and direct view radiographs were then taken. […] Food was then given after 12 hours.\n(§3) At 2 weeks, the animals were then anesthetized and radiographs taken while the lungs were expanded by air insuflation. The animals were then sacrificed by injection of saline and the dosed lobe of each animal examined histopathologically and compared with the corresponding undosed lobe."}, "[6]": {"system": "lung", "assay": "Bronchography study of laboratory animals (insuflation of a caudal lobe of one lung)", "conditions": "dog, dosed lobe, 2 weeks", "description": "as §1, §2, §3"}}, "data": [{"molecule": "CCCCCCOC(=O)OCc1c(I)cc(I)c(N)c1I", "note": "[r, 3-Amino-2,4,6-Triiodobenzyl-n-Hexyl Carbonate]", "values": [{"measurement": "Approximate Lethal Dose (ALD)", "setting": "[1]", "result": "greater than 11 Ml/Kg"}]}, {"molecule": "CCCCCCOC(=O)OCc1ccc(I)cc1", "note": "[c, n-Hexyl-p-Iodobenzyl Carbonate]", "values": [{"measurement": "Approximate Lethal Dose (ALD)", "setting": "[2]", "result": 7, "unit": "mL/kg"}, {"measurement": "Overall / histopathological response", "setting": "[3]", "result": "Relatively more severe histopathological responses"}, {"measurement": "Difficulty with righting responses", "setting": "[3]", "result": "more animals exhibiting righting difficulty"}, {"measurement": "Recovery from the injection procedure", "setting": "[3]", "result": "taking longer to recover"}, {"measurement": "Rate of clearance and elimination (order, fastest to slowest)", "setting": "[4]", "result": "p-iodobenzyl-n-butyl carbonate, p-iodobenzyl-n-hexyl carbonate, p-iodobenzyl-n-octyl carbonate and ethiodol"}, {"measurement": "Time to radiographically clear", "setting": "[4]", "result": "≤ 6", "unit": "weeks"}]}, {"molecule": "COC(=O)OC(C)c1ccc(I)cc1", "note": "(stereo not drawn) [v, p-Iodo-sec-Phenethyl Methyl Carbonate, reference compound]", "values": [{"measurement": "Intraperitoneal toxicity (in words)", "setting": "[2]; compared with the compounds of Table II", "result": "more toxic"}, {"measurement": "Approximate Lethal Dose (ALD)", "setting": "[2]", "result": 1.5, "unit": "mL/kg"}]}, {"molecule": "CCCCCCCCCCOC(=O)OCc1ccc(I)cc1", "note": "[f, n-Decyl-p-Iodobenzyl Carbonate]", "values": [{"measurement": "Approximate Lethal Dose (ALD)", "setting": "[2]", "result": 10.5, "unit": "mL/kg"}]}, {"molecule": "CCCCCCOC(=O)OCC(CCCC)Cc1ccc(I)cc1", "note": "(stereo not drawn) [q, n-Hexyl-2-(p-Iodobenzyl)-n-Hexyl Carbonate]", "values": [{"measurement": "Approximate Lethal Dose (ALD)", "setting": "[2]", "result": "greater than 15 Ml/Kg"}]}, {"molecule": "CCCCCOC(=O)OCc1ccc(I)cc1", "note": "[b, n-Amyl-p-Iodobenzyl Carbonate]", "values": [{"measurement": "Approximate Lethal Dose (ALD)", "setting": "[2]", "result": 3, "unit": "mL/kg"}]}, {"molecule": "CCCCCCC(C)OC(=O)OCc1ccc(I)cc1", "note": "(stereo not drawn) [i, 2-Octyl-p-Iodobenzyl Carbonate]", "values": [{"measurement": "Approximate Lethal Dose (ALD)", "setting": "[2]", "result": 15, "unit": "mL/kg"}, {"measurement": "Overall / histopathological response", "setting": "[3]", "result": "Relatively more severe histopathological responses"}, {"measurement": "Difficulty with righting responses", "setting": "[3]", "result": "more animals exhibiting righting difficulty"}, {"measurement": "Recovery from the injection procedure", "setting": "[3]", "result": "taking longer to recover"}]}, {"molecule": "CCCCCCOC(=O)OCCC(C)c1ccc(I)cc1", "note": "(stereo not drawn) [o, n-Hexyl-3-(p-Iodophenyl)Butyl Carbonate]", "values": [{"measurement": "Approximate Lethal Dose (ALD)", "setting": "[2]", "result": 7, "unit": "mL/kg"}]}, {"molecule": "CCCCCCCCOC(=O)Oc1ccc(I)cc1", "note": "[k, n-Octyl-p-Iodphenyl Carbonate]", "values": [{"measurement": "Approximate Lethal Dose (ALD)", "setting": "[2]", "result": 7, "unit": "mL/kg"}]}, {"molecule": "CCCCCCOC(=O)OCCCc1ccc(I)cc1", "note": "[n, n-Hexyl-3-(p-Iodophenyl)Propyl Carbonate]", "values": [{"measurement": "Approximate Lethal Dose (ALD)", "setting": "[2]", "result": 15, "unit": "mL/kg"}, {"measurement": "Overall / histopathological response", "setting": "[3]", "result": "Relatively more severe histopathological responses"}, {"measurement": "Difficulty with righting responses", "setting": "[3]", "result": "more animals exhibiting righting difficulty"}, {"measurement": "Recovery from the injection procedure", "setting": "[3]", "result": "taking longer to recover"}]}, {"molecule": "CCOC(=O)OCc1ccc(I)cc1", "note": "[p-iodobenzyl ethyl carbonate]", "values": [{"measurement": "Clearance of nodes", "setting": "[4]", "result": "~3", "unit": "days"}, {"measurement": "Histopathology of dosed nodes", "setting": "[4]", "result": "no change in the nodes"}, {"measurement": "Overall result after six weeks", "setting": "[4]", "result": "indistinguishable from undosed animals"}, {"measurement": "Rate of clearance and elimination (order, fastest to slowest)", "setting": "[4]", "result": "fastest"}]}, {"molecule": "CCCCCCOC(=O)OCc1cc(I)cc(I)c1", "note": "[s, 3,5-Diiodobenzyl-n-Hexyl Carbonate]", "values": [{"measurement": "Approximate Lethal Dose (ALD)", "setting": "[2]", "result": 5, "unit": "mL/kg"}]}, {"molecule": "CCCCCCOC(=O)OCCc1ccc(I)cc1", "note": "[m, n-Hexyl-p-Iodophenethyl Carbonate]", "values": [{"measurement": "Approximate Lethal Dose (ALD)", "setting": "[2]", "result": 7, "unit": "mL/kg"}]}, {"molecule": "CCCCCCOC(=O)Oc1ccc(I)cc1", "note": "[j, n-Hexyl-p-Iodophenyl Carbonate]", "values": [{"measurement": "Approximate Lethal Dose (ALD)", "setting": "[2]", "result": 7, "unit": "mL/kg"}]}, {"molecule": "CCCCOC(=O)OCc1ccc(I)cc1", "note": "[p-iodobenzyl-n-butyl carbonate]", "values": [{"measurement": "Histopathology of dosed nodes", "setting": "[4]", "result": "no change in the nodes"}, {"measurement": "Overall result after six weeks", "setting": "[4]", "result": "indistinguishable from undosed animals"}, {"measurement": "Rate of clearance and elimination (order, fastest to slowest)", "setting": "[4]", "result": "almost the same"}, {"measurement": "Time to radiographically clear", "setting": "[4]", "result": "≤ 6", "unit": "weeks"}]}, {"molecule": "CC(C)COC(=O)OCc1ccc(I)cc1", "note": "[a, p-Iodobenzyl Isobutyl Carbonate]", "values": [{"measurement": "Approximate Lethal Dose (ALD)", "setting": "[2]", "result": 3, "unit": "mL/kg"}]}, {"molecule": "CCCCOC(=O)SCc1ccc(I)cc1", "note": "[S-(p-iodobenzyl)-n-butyl thiolcarbonate]", "values": [{"measurement": "Histopathology of dosed nodes", "setting": "[4]", "result": "mild granulomatous lymphadenitis or lipoidal lymphadenopathy"}, {"measurement": "Overall result after six weeks", "setting": "[4]", "result": "excellent overall results with only minor histopathological responses"}, {"measurement": "Rate of clearance and elimination (order, fastest to slowest)", "setting": "[4]", "result": "almost the same"}, {"measurement": "Time to radiographically clear", "setting": "[4]", "result": "≤ 6", "unit": "weeks"}]}, {"molecule": "CCCCCCCCOC(=O)OCc1ccc(I)cc1", "note": "[e, n-Octyl-p-Iodobenzyl Carbonate]", "values": [{"measurement": "Approximate Lethal Dose (ALD)", "setting": "[2]", "result": 15, "unit": "mL/kg"}, {"measurement": "Overall / histopathological response", "setting": "[3]", "result": "overall responses close to air and Pantopaque approximating normal"}, {"measurement": "Lipid puddle formation", "setting": "[3]", "result": "slightly more lipid puddle formation"}, {"measurement": "Difficulty with righting responses", "setting": "[3]", "result": "an occasional animal showing some difficulty with righting responses"}, {"measurement": "Histopathology of dosed nodes", "setting": "[4]", "result": "mild granulomatous lymphadenitis or lipoidal lymphadenopathy"}, {"measurement": "Overall result after six weeks", "setting": "[4]", "result": "excellent overall results with only minor histopathological responses"}, {"measurement": "Radiographic state of iliac node", "setting": "[4]", "result": "small droplets could be seen"}, {"measurement": "Radiographic state of popliteal node", "setting": "[4]", "result": "clear"}, {"measurement": "Rate of clearance and elimination (order, fastest to slowest)", "setting": "[4]", "result": "p-iodobenzyl-n-hexyl carbonate, p-iodobenzyl-n-octyl carbonate and ethiodol"}]}, {"molecule": "CCCCC(CC)COC(=O)OCc1ccc(I)cc1", "note": "(stereo not drawn) [g, 2-Ethylhexyl-p-Iodobenzyl Carbonate]", "values": [{"measurement": "Approximate Lethal Dose (ALD)", "setting": "[2]", "result": 15, "unit": "mL/kg"}, {"measurement": "Overall / histopathological response", "setting": "[3]", "result": "Relatively more severe histopathological responses"}, {"measurement": "Difficulty with righting responses", "setting": "[3]", "result": "more animals exhibiting righting difficulty"}, {"measurement": "Recovery from the injection procedure", "setting": "[3]", "result": "taking longer to recover"}]}, {"molecule": "CCCCCCOC(=O)OCC(CC)Cc1ccc(I)cc1", "note": "(stereo not drawn) [p, n-Hexyl-2-(p-Iodobenzyl)Butyl Carbonate]", "values": [{"measurement": "Approximate Lethal Dose (ALD)", "setting": "[2]", "result": "greater than 15 Ml/Kg"}, {"measurement": "Overall / histopathological response", "setting": "[3]", "result": "overall responses close to air and Pantopaque approximating normal"}, {"measurement": "Lipid puddle formation", "setting": "[3]", "result": "slightly more lipid puddle formation"}, {"measurement": "Difficulty with righting responses", "setting": "[3]", "result": "an occasional animal showing some difficulty with righting responses"}]}, {"molecule": "CCCCCCOC(=O)OC(C)c1ccc(I)cc1", "note": "(stereo not drawn) [l, n-Hexyl-p-Iodo-sec-Phenethyl Carbonate]", "values": [{"measurement": "Approximate Lethal Dose (ALD)", "setting": "[2]", "result": 10.5, "unit": "mL/kg"}]}, {"molecule": "CCOC(=O)OCc1c(I)cc(I)c(NC(C)=O)c1I", "note": "[u, 3-acetamido-(2,4,6-triiodobenzyl)ethyl carbonate]", "values": [{"measurement": "Histopathological alterations of dosed lobes", "setting": "[5]", "result": "obliterative granulomatous bronchiolitis"}, {"measurement": "Persistence of compound in lung", "setting": "[5]", "result": "some evidence the iodinated phenyl carbonate had persisted and was responsible for this granulomatous bronchiolitis"}, {"measurement": "Approximate Lethal Dose (ALD)", "setting": "[1]", "result": "greater than 22 Ml/Kg"}, {"measurement": "Gross lesions related to instillation", "setting": "[6]", "result": "No gross lesions were found that appeared specifically related to instillation of the contrast medium"}]}, {"molecule": "CC(C)CC(C)OC(=O)OCc1ccc(I)cc1", "note": "(stereo not drawn) [d, p-Iodobenzyl-4-methyl-2-Pentyl Carbonate]", "values": [{"measurement": "Approximate Lethal Dose (ALD)", "setting": "[2]", "result": 7, "unit": "mL/kg"}]}, {"molecule": "CCCCCCCCOC(=O)OCc1cccc(I)c1", "note": "[t, m-Iodobenzyl-n-Octyl Carbonate]", "values": [{"measurement": "Approximate Lethal Dose (ALD)", "setting": "[2]", "result": "greater than 17 Ml/Kg"}]}, {"molecule": "CCCC(CC)OC(=O)OCc1ccc(I)cc1", "note": "(stereo not drawn) [h, 3-Hexyl-p-Iodobenzyl Carbonate]", "values": [{"measurement": "Approximate Lethal Dose (ALD)", "setting": "[2]", "result": 3, "unit": "mL/kg"}]}]}
